Source: ChEMBL document CHEMBL1201862, “PubChem BioAssay data set” (2004)
The source made the active and inactive calls.

Columns and labels:
Beta-galactosidase = Beta-galactosidase (Escherichia coli, UniProt Q8VNN2); test: PubChem AID 485352; format: functional
[1] = biological target: T1, Type-1 angiotensin II receptor (Homo sapiens, UniProt P30556); test: antagonism of angiotensin II type 1 receptor – cell-based, uHTS hits, selectivity assay for APJ receptor antagonist project, dose response (AID 463214); format: functional;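 also: antagonist potency against angiotensin II stimulated AT1 response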
T1 sequence (P30556 whole entry): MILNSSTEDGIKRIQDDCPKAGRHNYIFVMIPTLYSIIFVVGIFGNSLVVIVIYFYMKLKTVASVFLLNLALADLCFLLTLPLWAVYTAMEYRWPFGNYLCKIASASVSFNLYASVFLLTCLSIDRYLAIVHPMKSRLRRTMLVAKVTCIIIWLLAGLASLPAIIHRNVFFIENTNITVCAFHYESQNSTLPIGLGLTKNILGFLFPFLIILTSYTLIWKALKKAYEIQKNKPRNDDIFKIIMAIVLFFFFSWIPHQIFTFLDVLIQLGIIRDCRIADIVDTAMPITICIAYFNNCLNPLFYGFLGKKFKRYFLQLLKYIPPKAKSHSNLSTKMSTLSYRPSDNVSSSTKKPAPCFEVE

[2] = Luminescence Cell-Based Dose Confirmation HTS to Identify Activators of 5'UTR Stem-Loop Driven Alpha-Synuclein mRNA Translation in H4 Neuroglioblastoma Cells. [Related pubchem assays: 1829 (Project Summary), 1814 (Primary HTS)]; format: functional
[3] = Luminescence Cell-Based Dose Response HTS to Identify Activators of Luciferase Translation or Activity in H4 […] Cells. [Related pubchem assays: 1829 (Project Summary), 1814 (Primary HTS)]; format: functional
H4 = test: Luminescence Cell-Based Dose Response HTS to Identify Activators of 5'UTR Stem-Loop Driven Prion Protein mRNA Translation in H4 Neuroglioblastoma Cells. [Related pubchem assays: 1829 (Project Summary), 1814 (Primary HTS)]; format: functional; settings: Homo sapiens
Coagulation factor XII = biological target: T2, Coagulation factor XII (Homo sapiens, UniProt P00748); format: functional;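 also: activated factor XIIa alpha cleaving a fluorogenic AMC peptide substrate; inhibitor potency from loss of enzyme activity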
T2 sequence (P00748 whole entry): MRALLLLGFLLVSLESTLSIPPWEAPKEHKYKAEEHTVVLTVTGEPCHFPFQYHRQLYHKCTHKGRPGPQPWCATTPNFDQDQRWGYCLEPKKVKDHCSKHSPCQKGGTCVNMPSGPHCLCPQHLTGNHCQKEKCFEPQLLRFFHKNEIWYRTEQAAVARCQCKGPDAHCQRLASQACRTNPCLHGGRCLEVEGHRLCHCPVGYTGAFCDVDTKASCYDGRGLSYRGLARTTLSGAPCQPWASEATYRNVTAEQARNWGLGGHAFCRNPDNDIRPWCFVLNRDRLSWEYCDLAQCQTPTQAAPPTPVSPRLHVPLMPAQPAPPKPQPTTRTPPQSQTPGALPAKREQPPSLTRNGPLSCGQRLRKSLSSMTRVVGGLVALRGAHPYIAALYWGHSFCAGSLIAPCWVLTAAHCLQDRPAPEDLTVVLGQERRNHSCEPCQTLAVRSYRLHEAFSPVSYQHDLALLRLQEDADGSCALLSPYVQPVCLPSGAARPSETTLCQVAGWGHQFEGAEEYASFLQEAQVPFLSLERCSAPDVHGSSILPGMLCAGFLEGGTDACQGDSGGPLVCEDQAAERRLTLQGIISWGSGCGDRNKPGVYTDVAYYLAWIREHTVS

[4] = biological target: T3, Calpain-2 catalytic subunit (Sus scrofa, UniProt P43367); test: m-calpain protease blockers, concentration series – biochemical, fluorogenic peptide substrate, dose response (AID 1420); format: functional
T3 sequence (P43367 whole entry): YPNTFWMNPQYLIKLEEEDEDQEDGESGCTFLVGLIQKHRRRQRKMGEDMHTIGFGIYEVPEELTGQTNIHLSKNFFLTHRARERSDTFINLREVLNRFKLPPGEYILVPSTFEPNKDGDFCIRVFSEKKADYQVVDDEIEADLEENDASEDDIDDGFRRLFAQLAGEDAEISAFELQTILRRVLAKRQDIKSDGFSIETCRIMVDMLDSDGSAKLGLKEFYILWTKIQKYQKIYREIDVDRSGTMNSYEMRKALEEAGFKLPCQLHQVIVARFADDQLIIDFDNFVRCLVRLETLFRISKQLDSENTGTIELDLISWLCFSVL

[5] = luciferase reporter signal suppression in cells – H4 neuroglioma cells, luminescence, dose response (AID 1990); format: functional, cell-based
[6] = Luminescence Cell-Based Dose Response HTS to Identify Inhibitors of 5'UTR Stem-Loop Driven Prion Protein mRNA Translation in H4 Neuroglioblastoma Cells. [Related pubchem assays: 1827 (Project Summary), 1813 (Primary HTS)]; format: functional
[7] = alpha-synuclein stem-loop luciferase translation blockers – H4 neuroglioma cells, luminescence, confirmation (AID 1988); format: functional, cell-based
Nonstructural protein 1 = Nonstructural protein 1 (Influenza A virus, UniProt Q194T2); format: functional, Influenza A virus (A/California/07/2009(H1N1))
Sequence of Nonstructural protein 1 (Q194T2 whole entry): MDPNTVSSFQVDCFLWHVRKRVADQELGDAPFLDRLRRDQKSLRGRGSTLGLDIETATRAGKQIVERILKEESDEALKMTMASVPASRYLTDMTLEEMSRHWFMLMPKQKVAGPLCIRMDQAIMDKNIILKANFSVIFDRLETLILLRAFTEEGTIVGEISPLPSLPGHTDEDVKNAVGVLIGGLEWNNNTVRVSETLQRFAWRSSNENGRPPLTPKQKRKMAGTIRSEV

H9c2 = test: cells; format: functional, cell-based; settings: Rattus norvegicus, H9c2, Myocardium;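 also: confirmatory concentration-response retest of ultra-high-throughput screening hits for modulation of myocardial damage; cell death induced by hydrogen peroxide oxidative stress; compound pretreatment for 60 min then peroxide exposure for 2 h; potency is for protecting the cells against peroxide damage rather than for killing them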
[8] = biological target: T4, Ubiquitin-conjugating enzyme E2 N (Homo sapiens, UniProt P61088); format: functional;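 also: Dose-response confirmation in a TR-FRET assay detecting UBC13-driven polyubiquitin chain formation, inhibition measured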
T4 sequence (P61088 whole entry): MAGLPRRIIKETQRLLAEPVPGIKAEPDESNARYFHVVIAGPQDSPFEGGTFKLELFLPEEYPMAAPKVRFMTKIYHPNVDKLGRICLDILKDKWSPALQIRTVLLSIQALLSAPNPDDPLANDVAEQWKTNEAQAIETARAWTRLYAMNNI

[9] = NIH-3T3 fibroblast cytotoxicity, dose response, cytotoxicity control, cell-based, fluorescence, Alamar Blue, secondary assay (AID 2327); format: functional;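 also: NIH-3T3 mouse fibroblasts cultured with fluconazole at 8 µg/mL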
[10] = fluconazole-exposed Candida albicans growth modulators – fluorescence, retest, confirmation (AID 2467); format: functional, cell-based
[11] = THP-1 cell cytotoxicity, dose response, cytotoxicity control for non-replicating M. tuberculosis project (AID 489025); format: functional
[12] = system: Streptococcus sp. 'group A'; test: Streptococcus pyogenes SK(-)GAS viability under kanamycin – luminescence, BacTiterGlo, confirmation, counter-screen for streptokinase expression inhibitor project, dose response (AID 1900); format: functional, organism-based
[13] = biological target: T5, Heat shock factor protein 1 (Mus musculus, UniProt P38532); test: decrease of HSF1-responsive luciferase luminescence – cell-based, NIH3T3, dose retest, confirmation (AID 2382); format: functional;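 also: NIH3T3 fibroblasts with HSF1-driven luciferase reporter stressed by proteasome inhibitor MG132; luminescence from HSF1-driven luciferase expression after 8 hours of MG132 stress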
T5 sequence (P38532 whole entry): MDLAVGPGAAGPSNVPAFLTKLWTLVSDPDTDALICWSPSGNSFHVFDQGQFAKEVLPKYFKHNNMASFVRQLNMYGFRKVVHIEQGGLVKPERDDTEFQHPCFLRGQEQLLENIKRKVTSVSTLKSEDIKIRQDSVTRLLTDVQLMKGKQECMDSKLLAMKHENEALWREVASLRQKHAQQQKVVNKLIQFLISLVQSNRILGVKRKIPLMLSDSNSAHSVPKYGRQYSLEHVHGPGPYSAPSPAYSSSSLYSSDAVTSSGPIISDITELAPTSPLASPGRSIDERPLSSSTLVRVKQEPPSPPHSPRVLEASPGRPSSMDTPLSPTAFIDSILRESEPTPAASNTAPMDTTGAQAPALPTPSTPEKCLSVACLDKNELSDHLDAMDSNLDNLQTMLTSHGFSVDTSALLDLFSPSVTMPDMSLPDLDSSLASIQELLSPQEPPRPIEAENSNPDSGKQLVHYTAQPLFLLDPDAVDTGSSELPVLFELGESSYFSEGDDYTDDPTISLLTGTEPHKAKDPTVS

Streptococcus = test: GAS UMAA2166 growth inhibition – luminescence, BacTiterGlo, counter-screen for streptokinase expression inhibitor project, dose response (AID 1915); format: functional, organism-based;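 also: potency for reduction of bacterial viability or growth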
Fatty acid synthase [14] = biological target: T6, Fatty acid synthase (Homo sapiens, UniProt P49327); test: inhibition of human FAS-TE enzyme activity – biochemical, endpoint fluorescence intensity, uHTS hits, dose response (AID 624327); format: functional;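 also: fluorescence from hydrolysis of an O-methyl fluorescein acyl ester substrate by the enzyme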
T6 sequence (P49327 whole entry): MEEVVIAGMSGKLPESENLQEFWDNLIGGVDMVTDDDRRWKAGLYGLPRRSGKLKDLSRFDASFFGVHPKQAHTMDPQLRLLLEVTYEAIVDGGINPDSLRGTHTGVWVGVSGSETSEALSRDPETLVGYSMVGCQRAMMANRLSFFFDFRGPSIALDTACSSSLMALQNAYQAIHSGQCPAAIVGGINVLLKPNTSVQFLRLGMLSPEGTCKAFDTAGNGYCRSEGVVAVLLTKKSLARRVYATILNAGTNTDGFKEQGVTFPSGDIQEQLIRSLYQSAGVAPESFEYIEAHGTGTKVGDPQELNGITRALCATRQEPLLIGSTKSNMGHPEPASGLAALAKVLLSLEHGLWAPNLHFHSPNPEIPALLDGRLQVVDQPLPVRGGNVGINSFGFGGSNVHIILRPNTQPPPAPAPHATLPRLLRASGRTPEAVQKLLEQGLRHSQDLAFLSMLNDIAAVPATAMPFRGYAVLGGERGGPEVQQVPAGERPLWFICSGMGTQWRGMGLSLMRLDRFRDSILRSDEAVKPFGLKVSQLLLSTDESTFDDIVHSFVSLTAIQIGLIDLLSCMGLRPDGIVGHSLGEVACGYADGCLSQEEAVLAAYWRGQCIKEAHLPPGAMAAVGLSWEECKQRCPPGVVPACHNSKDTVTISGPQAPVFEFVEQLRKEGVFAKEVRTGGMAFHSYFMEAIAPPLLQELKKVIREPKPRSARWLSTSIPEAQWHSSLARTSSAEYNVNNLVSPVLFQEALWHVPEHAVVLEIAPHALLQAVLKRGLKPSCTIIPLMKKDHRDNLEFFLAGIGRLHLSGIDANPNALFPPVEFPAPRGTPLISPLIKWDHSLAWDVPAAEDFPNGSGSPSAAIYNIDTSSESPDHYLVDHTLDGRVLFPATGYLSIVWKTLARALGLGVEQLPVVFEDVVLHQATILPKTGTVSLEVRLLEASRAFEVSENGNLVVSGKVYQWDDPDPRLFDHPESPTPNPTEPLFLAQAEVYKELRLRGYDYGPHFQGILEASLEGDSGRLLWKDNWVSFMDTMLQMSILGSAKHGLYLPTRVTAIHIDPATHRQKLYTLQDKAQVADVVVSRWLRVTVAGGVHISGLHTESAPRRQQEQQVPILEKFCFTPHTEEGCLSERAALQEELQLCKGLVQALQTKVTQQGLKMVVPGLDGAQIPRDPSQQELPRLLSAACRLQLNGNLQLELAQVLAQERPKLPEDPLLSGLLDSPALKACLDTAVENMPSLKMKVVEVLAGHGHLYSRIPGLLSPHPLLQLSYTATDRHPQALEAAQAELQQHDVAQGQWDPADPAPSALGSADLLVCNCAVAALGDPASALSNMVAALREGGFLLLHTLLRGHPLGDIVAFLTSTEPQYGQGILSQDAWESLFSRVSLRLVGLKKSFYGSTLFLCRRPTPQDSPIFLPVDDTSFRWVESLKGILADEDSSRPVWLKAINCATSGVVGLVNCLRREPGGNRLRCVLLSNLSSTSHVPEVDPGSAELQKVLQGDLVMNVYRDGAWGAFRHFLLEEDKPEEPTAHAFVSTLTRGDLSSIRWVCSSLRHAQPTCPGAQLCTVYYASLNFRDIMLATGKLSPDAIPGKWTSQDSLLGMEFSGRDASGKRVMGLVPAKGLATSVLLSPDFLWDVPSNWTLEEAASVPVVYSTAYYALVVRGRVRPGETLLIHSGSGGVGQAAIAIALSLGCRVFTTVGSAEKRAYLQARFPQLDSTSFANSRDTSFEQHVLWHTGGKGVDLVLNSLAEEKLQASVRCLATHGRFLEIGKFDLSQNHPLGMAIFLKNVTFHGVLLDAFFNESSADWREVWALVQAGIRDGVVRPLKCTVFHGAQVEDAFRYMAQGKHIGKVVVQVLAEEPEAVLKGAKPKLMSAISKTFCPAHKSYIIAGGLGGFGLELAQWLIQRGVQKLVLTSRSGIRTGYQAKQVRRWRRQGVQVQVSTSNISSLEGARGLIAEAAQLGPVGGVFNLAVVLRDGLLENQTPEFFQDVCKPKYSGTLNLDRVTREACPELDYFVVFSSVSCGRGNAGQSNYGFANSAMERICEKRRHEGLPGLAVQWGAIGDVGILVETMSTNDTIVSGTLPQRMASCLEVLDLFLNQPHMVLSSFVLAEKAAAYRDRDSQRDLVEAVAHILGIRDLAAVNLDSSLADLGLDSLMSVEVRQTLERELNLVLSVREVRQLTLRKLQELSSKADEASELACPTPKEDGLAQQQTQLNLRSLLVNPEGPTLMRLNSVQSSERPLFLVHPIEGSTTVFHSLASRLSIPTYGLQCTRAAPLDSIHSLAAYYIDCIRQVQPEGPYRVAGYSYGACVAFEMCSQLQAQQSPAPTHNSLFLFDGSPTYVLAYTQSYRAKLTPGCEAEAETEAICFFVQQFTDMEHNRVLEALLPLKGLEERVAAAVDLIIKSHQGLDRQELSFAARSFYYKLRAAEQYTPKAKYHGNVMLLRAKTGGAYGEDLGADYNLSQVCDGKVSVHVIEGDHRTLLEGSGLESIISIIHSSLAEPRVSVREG

Fatty acid synthase [15] = biological target: T6, Fatty acid synthase; test: inhibition of human FAS-TE enzyme activity – biochemical, kinetic fluorescence intensity, dose response (AID 624326); format: functional;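 also: rate of fluorescence rise from hydrolysis of a fluorogenic O-methyl fluorescein ester substrate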
[16] = P. falciparum Dd2 growth inhibitors, dose response, SYBR Green, cherry-picked samples (AID 1159567); format: functional, cell-based

Sequence of Beta-galactosidase (Q8VNN2 whole entry): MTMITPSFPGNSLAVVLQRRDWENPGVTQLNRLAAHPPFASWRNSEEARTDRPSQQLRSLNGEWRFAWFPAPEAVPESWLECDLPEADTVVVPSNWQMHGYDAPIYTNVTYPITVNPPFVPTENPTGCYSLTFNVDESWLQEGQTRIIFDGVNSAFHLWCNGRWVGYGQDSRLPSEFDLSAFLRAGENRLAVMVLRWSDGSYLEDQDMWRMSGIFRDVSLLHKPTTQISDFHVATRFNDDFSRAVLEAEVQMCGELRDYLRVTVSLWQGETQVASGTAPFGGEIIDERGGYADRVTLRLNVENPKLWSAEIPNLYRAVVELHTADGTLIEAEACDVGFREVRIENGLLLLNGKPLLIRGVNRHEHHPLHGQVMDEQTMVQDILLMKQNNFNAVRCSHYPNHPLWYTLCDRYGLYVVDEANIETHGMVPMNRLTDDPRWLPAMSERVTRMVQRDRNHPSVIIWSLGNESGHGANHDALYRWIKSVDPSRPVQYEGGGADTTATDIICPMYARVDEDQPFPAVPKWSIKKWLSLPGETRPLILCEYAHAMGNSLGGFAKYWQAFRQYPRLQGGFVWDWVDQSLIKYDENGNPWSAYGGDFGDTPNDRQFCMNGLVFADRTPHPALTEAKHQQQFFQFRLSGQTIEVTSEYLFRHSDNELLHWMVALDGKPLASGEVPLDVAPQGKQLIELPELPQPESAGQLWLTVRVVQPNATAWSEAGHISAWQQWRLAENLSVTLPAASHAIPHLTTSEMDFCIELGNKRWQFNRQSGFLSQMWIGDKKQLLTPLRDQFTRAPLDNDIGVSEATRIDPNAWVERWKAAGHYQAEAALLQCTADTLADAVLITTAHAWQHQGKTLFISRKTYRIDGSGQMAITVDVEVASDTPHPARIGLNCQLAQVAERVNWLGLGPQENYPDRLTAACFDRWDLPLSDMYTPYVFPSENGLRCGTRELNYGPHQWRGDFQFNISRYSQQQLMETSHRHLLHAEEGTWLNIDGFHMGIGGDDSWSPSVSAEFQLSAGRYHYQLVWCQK

SMILES: CC(C)Oc1cccc(C(=O)NC(=S)Nc2cccnc2)c1
- EC50 (Beta-galactosidase): > 40 µM (inactive)
- IC50 [1]: > 40 µM (not active)

SMILES: Cn1ncc(Oc2ccc([N+](=O)[O-])cc2)c(Cl)c1=O
- EC50 [2]: > 120 µM (not active)
- EC50 [3]: 25.9 µM (active)
- EC50 (H4): > 120 µM (not active)
- IC50 (Coagulation factor XII): > 50 µM (inactive)

SMILES: COc1ccc(N2CCN(S(=O)(=O)c3ccc(C(=O)NC4CCCC4)cc3)CC2)cc1
- IC50 (Coagulation factor XII): > 50 µM (inactive)

SMILES: O=C(NC(=S)Nc1ccc(S(=O)(=O)Nc2nccs2)cc1)c1ccccc1F
- IC50 (Coagulation factor XII): > 50 µM (inactive)

SMILES: Cc1cc(C)c(O)c(-c2cc(C(=O)NCc3ccccc3)[nH]n2)c1
- IC50 [4]: 3.02 µM (not active)

SMILES: CC1=C(C(=O)OCC2CCCO2)C(c2ccc(C)o2)C2=C(O)CC(c3ccc(N(C)C)cc3)CC2=N1 (stereo not drawn)
- IC50 [4]: > 50 µM (not active)

SMILES: O=C(CN1C(=O)C2C3C=CC(C3)C2C1=O)Nc1nc(-c2ccccn2)cs1 (stereo not drawn)
- EC50 [5]: 15.4 µM (active)
- EC50 [6]: > 120 µM (not active)
- EC50 [7]: 12.2 µM (active)
- IC50 (Nonstructural protein 1): 10.5 µM (active)
- IC50 (H9c2): 15.1 µM (active)

SMILES: O=C(COC(=O)c1ccc(Br)o1)c1ccc(S(=O)(=O)N2CCCCC2)cc1
- EC50 (Beta-galactosidase): > 40 µM (inactive)
- IC50 [1]: 23.2 µM (not active)

SMILES: CCCCCCCCCC(=O)N1c2ccccc2NC(=O)C1CC(=O)Nc1ccc(C(=O)O)cc1 (stereo not drawn)
- IC50 [4]: 21.1 µM (not active)

SMILES: O=C(O)CC(Cc1ccc(Cl)cc1)C(=O)Nc1ccc([N+](=O)[O-])cc1 (stereo not drawn)
- IC50 [4]: > 50 µM (not active)

SMILES: O=C(CSc1nnnn1-c1ccccc1)CSc1nnnn1-c1ccccc1
- IC50 [4]: 7.04 µM (not active)

SMILES: CCCc1nc2[nH]nc(N)c2c2c1CCC2
- IC50 (Coagulation factor XII): > 50 µM (inactive)

SMILES: CCC(C)(C)NC(=O)C(c1ccc(C)o1)N(Cc1ccc2c(c1)OCO2)C(=O)c1snc(C(N)=O)c1N (stereo not drawn)
- IC50 [8]: > 20 µM (inactive)

SMILES: O=C(OCc1nnc(-c2ccccc2)o1)c1ccc2c(c1)OCO2
- IC50 [4]: 15.2 µM (not active)

SMILES: c1cnc2c(c1)ccc1cccnc12
- EC50 [9]: 6.76 µM (inconclusive)
- IC50 (Nonstructural protein 1): 1.03 µM (active)

SMILES: O=C(NNC(=O)C12CC3CC(CC(C3)C1)C2)c1cnccn1
- EC50 [9]: > 160 µM (inactive)
- EC50 [10]: > 38 µM (not active)
- CC50 [11]: 39.8 µM (active)

SMILES: CCOC(=O)C1=NNC(C(=O)c2ccc(Cl)cc2)C1c1ccccc1 (stereo not drawn)
- EC50 (Beta-galactosidase): > 40 µM (inactive)
- IC50 [1]: 39.9 µM (not active)

SMILES: O=C(CCN1C(=O)C2C3CC(C(Br)C3Br)C2C1=O)OCC(=O)c1cccc([N+](=O)[O-])c1 (stereo not drawn)
- EC50 (Beta-galactosidase): > 40 µM (inactive)
- IC50 [1]: 28.4 µM (not active)

SMILES: COc1ccc(C2=NN(C(=O)c3ccc(Cl)c([N+](=O)[O-])c3)C(c3ccccc3)C2)cc1 (stereo not drawn)
- IC50 [4]: 3.26 µM (not active)

SMILES: COc1ccc2sc(-c3ccccc3OC)c(C#Cc3cncn3C)c2c1
- IC50 [8]: > 20 µM (inactive)

SMILES: COc1cccc(/C=N/n2c(N)c(S(=O)(=O)c3cccs3)c3nc4ccccc4nc32)c1OC
- IC50 (Coagulation factor XII): > 50 µM (inactive)

SMILES: Cc1ncc(CO)c(/C=N/NC(=S)Nc2ccc(F)cc2)c1O
- IC50 (Nonstructural protein 1): 2.84 µM (active)

SMILES: COc1ccc(O)c(/C=N/NC(=O)c2cc(O)nc3ccccc23)c1
- IC50 (Coagulation factor XII): > 50 µM (inactive)

SMILES: O=C(Cn1nc2ccccc2n1)N/N=C/c1cc([N+](=O)[O-])ccc1O
- EC50 [12]: 0.419 µM (active)
- EC50 [13]: 0.691 µM (active)
- EC50 (Streptococcus): 0.55 µM (active)
- IC50 (Nonstructural protein 1): 5.08 µM (active)
- IC50 (Fatty acid synthase [14]): 3.76 µM (active)
- IC50 (Fatty acid synthase [15]): 5.14 µM (active)

SMILES: O=C(c1ccccn1)N1CC(=O)N2[C@H](C1)[C@@H](c1ccc(C#CCc3ccccc3)cc1)[C@@H]2CO
- AC50 [16]: 9.01 µM (active)

SMILES: CCC(=O)N1CC2(C1)CN(Cc1ccccc1Cl)[C@@H](CO)c1[nH]c3cc(OC)ccc3c12
- AC50 [16]: 6.32 µM (active)

SMILES: C[C@@H]1CN([C@@H](C)CO)C(=O)c2cc(NC(=O)Nc3ccc(C(F)(F)F)cc3)ccc2O[C@H]1CN(C)C(=O)Nc1cccc2ccccc12
- AC50 [16]: 5.06 µM (active)

SMILES: C[C@@H]1CN([C@H](C)CO)C(=O)c2cccc(NS(=O)(=O)c3ccccc3)c2O[C@H]1CN(C)Cc1ccc(Oc2ccccc2)cc1
- AC50 [16]: 6.14 µM (active)

SMILES: CC1CCN(CCNC(=O)c2ccc3c(=O)n(Cc4ccc(Cl)cc4)c(=S)[nH]c3c2)CC1
- IC50 [8]: > 20 µM (inactive)
